In patent US11377441B2, “Covalent inhibitors of KRAS” (Araxes Pharma LLC, priority 2017, dated 2022) one finds Binding % data, which are given here for 19 compounds.

The structures appear in SMILES notation.

The target in the assay is T1, KRAS G12C 1-169, his-tagged protein, GDP-loaded (Homo sapiens, UniProt P01116, G12C).
T1 construct: KRAS G12C 1-169, his-tagged protein, GDP-loaded
The assay is described as follows: Biochemical assay: covalent modification of KRAS G12C measured by mass spectrometry (RapidFire/TOF or Q-Exactive). The class given is binding. Conditions: covalent binding to (modification of) KRAS G12C after a ten minute incubation period. In a few lines: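 Intact-mass readout (TOF or Q-Exactive, charge-envelope deconvolution) gives percent covalent adduct from modified and unmodified species. Compound at 10, 30 or 100 μM was incubated at room temperature for 10 min to 24 h with 2 μM or 0.5 μM GDP-bound KRAS G12C 1-169 in Hepes/NaCl/MgCl2 buffer, then acid-quenched.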
With `C=CC(=O)N1C[C@H](C)N(c2nc(N3CC(N(C)C)C3)nc3c(F)c(-c4c(C)ccc5cnn(C6CC6)c45)c(Cl)cc23)C[C@H]1C` (atropisomer, axis not shown) [Compound 150, 1-((2R,5S)-4-((R)-6-chloro-7-(1-cyclopropyl-6-methyl-1H-indazol-7-yl)-2-(3-(dimethylamino)azetidin-1-yl)-8-fluoroquinazolin-4-yl)-2,5-dimethylpiperazin-1-yl)prop-2-en-1-one], the Binding % result is “+++ (+++ indicates binding activity greater than 80%)”.
The same measure for `C=CC(=O)N1C[C@H](C)N(c2nc(OCCN3CCC(F)CC3)nc3c(F)c(-c4c(C)ccc5[nH]nc(C)c45)c(Cl)cc23)C[C@H]1C` [Compound 164, 1-((2R,5S)-4-((R)-6-chloro-7-(3,5-dimethyl-1H-indazol-4-yl)-8-fluoro-2-(2-(4-fluoropiperidin-1-yl)ethoxy)quinazolin-4-yl)-2,5-dimethylpiperazin-1-yl)prop-2-en-1-one]: “+++ (+++ indicates binding activity greater than 80%)”; for `C=CC(=O)N1C[C@H](C)N(c2nc(OC[C@@H]3CCCN3C)nc3c(F)c(-c4c(C)ccc5cnn(C)c45)c(Cl)cc23)C[C@H]1C` (atropisomer, axis not shown) [Compound 235, 1-((2R,5S)-4-((R)-6-chloro-7-(1,6-dimethyl-1H-indazol-7-yl)-8-fluoro-2-(((S)-1-methylpyrrolidin-2-yl)methoxy)quinazolin-4-yl)-2,5-dimethylpiperazin-1-yl)prop-2-en-1-one]: “+++ (+++ indicates binding activity greater than 80%)”; for `C=CC(=O)N1C[C@@H](C)N(c2nc(N3CC(N(C)C)C3)nc3c(F)c(-c4c(C)ccc5[nH]nc(N)c45)c(Cl)cc23)[C@@H](C)C1` [Compound 45, 1-((3R,5S)-4-(7-(3-amino-5-methyl-1H-indazol-4-yl)-6-chloro-2-(3-(dimethylamino)azetidin-1-yl)-8-fluoroquinazolin-4-yl)-3,5-dimethylpiperazin-1-yl)prop-2-en-1-one]: “+++ (+++ indicates binding activity greater than 80%)”.
The same measure for `C=CC(=O)N1C[C@H](C)N(c2nc(OC[C@H]3CCN(C)C3)nc3c(F)c(-c4c(C)ccc5cnn(C)c45)c(Cl)cc23)C[C@H]1C` [Compound 196, 1-((2R,5S)-4-(6-chloro-7-(1,6-dimethyl-1H-indazol-7-yl)-8-fluoro-2-(((S)-1-methylpyrrolidin-3-yl)methoxy)quinazolin-4-yl)-2,5-dimethylpiperazin-1-yl)prop-2-en-1-one]: “++ (++ indicates binding activity from 50 to 80%)”; for `C=CC(=O)N1C[C@H](C)N(c2nc(N3CC(NC)C3)nc3c(F)c(-c4c(C)ccc5cnn(C)c45)c(Cl)cc23)C[C@H]1C` (atropisomer, axis not shown) [Compound 206, 1-((2R,5S)-4-((R)-6-chloro-7-(1,6-dimethyl-1H-indazol-7-yl)-8-fluoro-2-(3-(methylamino)azetidin-1-yl)quinazolin-4-yl)-2,5-dimethylpiperazin-1-yl)prop-2-en-1-one]: “+++ (+++ indicates binding activity greater than 80%)”; for `C=CC(=O)N1C[C@H](C)N(c2nc(N3CC(N(C)C)C3)nc3c(F)c(-c4c(C(C)C)ccc5[nH]ncc45)c(Cl)cc23)C[C@H]1C` [Compound 159, 1-((2R,5S)-4-(6-chloro-2-(3-(dimethylamino)azetidin-1-yl)-8-fluoro-7-(5-isopropyl-1H-indazol-4-yl)quinazolin-4-yl)-2,5-dimethylpiperazin-1-yl)prop-2-en-1-one]: “+ (+ indicates binding activity greater than 0% and up to 50%)”.
The same measure for `C=CC(=O)N1C[C@H](C)N(c2nc(OC3CC(N(C)C)C3)nc3c(F)c(-c4c(C)ccc5[nH]ncc45)c(Cl)cc23)C[C@H]1C` (stereo partly drawn) [Compound 264, 1-((2R,5S)-4-(6-chloro-2-(3-(dimethylamino)cyclo-butoxy)-8-fluoro-7-(5-methyl-1H-indazol-4-yl)quinazolin-4-yl)-2,5-dimethylpiperazin-1-yl)prop-2-en-1-one]: “+++ (+++ indicates binding activity greater than 80%)”.
Take `C=CC(=O)N1C[C@H](C)N(c2nc(N3CC(N(C)C)C3)nc3c(F)c(-c4cccc5c4N(C)C(=O)C5)c(Cl)cc23)C[C@H]1C` [Compound 262, 7-(4-((2S,5R)-4-acryloyl-2,5-dimethylpiperazin-1-yl)-6-chloro-2-(3-(dimethylamino)azetidin-1-yl)-8-fluoroquinazolin-7-yl)-1-methylindolin-2-one]: the Binding % entry is “+ (+ indicates binding activity greater than 0% and up to 50%)”.
Under `C=CS(=O)(=O)N1C[C@H](C)N(c2nc(N3CC(N(C)C)C3)nc3c(F)c(-c4c(C)ccc5cnn(C)c45)c(Cl)cc23)C[C@H]1C` [Compound 191, 1-(6-chloro-7-(1,6-dimethyl-1H-indazol-7-yl)-4-((2S,5R)-2,5-dimethyl-4-(vinylsulfonyl)piperazin-1-yl)-8-fluoroquinazolin-2-yl)-N,N-dimethylazetidin-3-amine] stands “+ (+ indicates binding activity greater than 0% and up to 50%)”; under `C=CC(=O)N1C[C@H](C)N(c2nc(N3CC(N(C)C)C3)nc3c(F)c(-c4c(C)ccc5cnn(C(C)C)c45)c(Cl)cc23)C[C@H]1C` [Compound 127, 1-((2R,5S)-4-(6-chloro-2-(3-(dimethylamino)azetidin-1-yl)-8-fluoro-7-(1-isopropyl-6-methyl-1H-indazol-7-yl)quinazolin-4-yl)-2,5-dimethylpiperazin-1-yl)prop-2-en-1-one], “++ (++ indicates binding activity from 50 to 80%)”; under `C=CC(=O)N1C[C@H](C)N(c2nc(OC[C@@H]3CCN(C)C3)nc3c(F)c(-c4c(C)ccc5[nH]nc(C6CC6)c45)c(Cl)cc23)C[C@H]1C` [Compound 177, 1-((2R,5S)-4-(6-chloro-7-(3-cyclopropyl-5-methyl-1H-indazol-4-yl)-8-fluoro-2-(((R)-1-methylpyrrolidin-3-yl)methoxy)quinazolin-4-yl)-2,5-dimethylpiperazin-1-yl)prop-2-en-1-one], “+++ (+++ indicates binding activity greater than 80%)”.
As to `C=CC(=O)N1C[C@H](C)N(c2nc(N3CC(N(C)C)C3)nc3c(F)c(-c4c(F)ccc5cnn(C)c45)c(Cl)cc23)C[C@H]1C` [Compound 145, 1-((2R,5S)-4-(6-chloro-2-(3-(dimethylamino)azetidin-1-yl)-8-fluoro-7-(6-fluoro-1-methyl-1H-indazol-7-yl)quinazolin-4-yl)-2,5-dimethylpiperazin-1-yl)prop-2-en-1-one], the Binding % entry is on record as “+++ (+++ indicates binding activity greater than 80%)”.
Under `C=CC(=O)N1C[C@H](C)N(c2nc(N3CC(N(C)C)C3)nc3c(F)c(-c4c(C)ccc5onc(N)c45)c(Cl)cc23)C[C@H]1C` (atropisomer, axis not shown) [Compound 96, 1-((2R,5S)-4-((S)-7-(3-amino-5-methylbenzo[d]isoxazol-4-yl)-6-chloro-2-(3-(dimethylamino)azetidin-1-yl)-8-fluoroquinazolin-4-yl)-2,5-dimethylpiperazin-1-yl)prop-2-en-1-one] stands “+ (+ indicates binding activity greater than 0% and up to 50%)”.
The same measure for `C=CC(=O)N1C[C@H](C)N(c2nc(OC[C@@H]3CCCN3C)nc3c(F)c(-c4c(C)ccc5[nH]nc(C6CC6)c45)c(Cl)cc23)C[C@H]1C` (atropisomer, axis not shown) [Compound 228, 1-((2R,5S)-4-((R)-6-chloro-7-(3-cyclopropyl-5-methyl-1H-indazol-4-yl)-8-fluoro-2-(((S)-1-methylpyrrolidin-2-yl)methoxy)quinazolin-4-yl)-2,5-dimethylpiperazin-1-yl)prop-2-en-1-one]: “+++ (+++ indicates binding activity greater than 80%)”; for `C=CC(=O)N1C[C@H](C)N(c2nc(OC[C@@H]3CCCN3C)nc3c(F)c(-c4c(C)ccc5[nH]nc(C)c45)c(Cl)cc23)C[C@H]1C` [Compound 185, 1-((2R,5S)-4-(6-chloro-7-(3,5-dimethyl-1H-indazol-4-yl)-8-fluoro-2-(((S)-1-methylpyrrolidin-2-yl)methoxy)quinazolin-4-yl)-2,5-dimethylpiperazin-1-yl)prop-2-en-1-one]: “+++ (+++ indicates binding activity greater than 80%)”.
Under `C=CC(=O)N1C[C@H](C)N(c2nc(N3CC(NC)C3)nc3c(F)c(-c4c(C)ccc5[nH]nc(C6CC6)c45)c(Cl)cc23)C[C@H]1C` [Compound 129, 1-((2R,5S)-4-(6-chloro-7-(3-cyclopropyl-5-methyl-1H-indazol-4-yl)-8-fluoro-2-(3-(methylamino)azetidin-1-yl)quinazolin-4-yl)-2,5-dimethylpiperazin-1-yl)prop-2-en-1-one] stands “+++ (+++ indicates binding activity greater than 80%)”; under `C=CC(=O)N1C[C@H](C)N(c2nc(OCCN3CC(F)(F)C3)nc3c(F)c(-c4c(C)ccc5[nH]nc(N)c45)c(Cl)cc23)C[C@H]1C` (atropisomer, axis not shown) [Compound 83, 1-((2R,5S)-4-((S)-7-(3-amino-5-methyl-1H-indazol-4-yl)-6-chloro-2-(2-(3,3-difluoroazetidin-1-yl)ethoxy)-8-fluoroquinazolin-4-yl)-2,5-dimethylpiperazin-1-yl)prop-2-en-1-one], “+ (+ indicates binding activity greater than 0% and up to 50%)”; under `C=CC(=O)N1CCN(c2nc(N3CC(N(C)C)C3)nc3c(F)c(-c4c(C)ccc5[nH]nc(N)c45)c(Cl)cc23)CC1` (atropisomer, axis not shown) [Compound 38, (S)-1-(4-(7-(3-amino-5-methyl-1H-indazol-4-yl)-6-chloro-2-(3-(dimethylamino)azetidin-1-yl)-8-fluoroquinazolin-4-yl)piperazin-1-yl)prop-2-en-1-one], “+ (+ indicates binding activity greater than 0% and up to 50%)”.
